# Legend:
# Test in all cases: NanoBRET
# Assay type in all cases: cell-based
# CDK13/Cyclin K = biological target: T1, CDK13/Cyclin K (Homo sapiens, UniProt Q14004); settings: read-out: NanoBRET EC50 ± SEM CDK13/Cyclin K
# T1 construct: Full-length kinases were obtained as plasmids cloned in frame with a terminal NanoLuc-fusion; CS1810C93 (CCNK); host or cells: HEK293T
# Procedure: (§1) The assay was performed as described previously. In brief: Full-length kinases were obtained as plasmids cloned in frame with a terminal NanoLuc-fusion (Promega, Madison, WI, USA), as specified in table (Table S6). Plasmids were transfected into HEK293T cells using FuGENE HD (Promega, E2312) and proteins were allowed to express for 20h. Serially diluted inhibitor and NanoBRET Kinase Tracer (Promega) at a concentration determined previously as the KD,app (Table S5) were pipetted into white 384-well plates (Greiner 781207) using an Echo acoustic dispenser (Labcyte, San Jose, CA, USA). The corresponding protein-transfected cells were added and reseeded at a density of 2.5 × 10^5 cells/mL after trypsinization and resuspending in Opti-MEM without phenol red (Life Technologies, Carlsbad, CA, USA). The system was allowed to equilibrate for 2 h at 37 °C/5% CO2 prior to BRET measurements. To measure BRET, NanoBRET NanoGlo Substrate + Extracellular NanoLuc Inhibitor (Promega, N2540) was added as per the manufacturer’s protocol, and filtered luminescence was measured on a PHERAstar plate reader (BMG Labtech, Ortenberg, Germany) equipped with a luminescence filter pair (450 nm BP filter (donor) and 610 nm LP filter (acceptor)). Competitive displacement data were then graphed using GraphPad Prism 9 software using a normalized 3-parameter curve fit with the following equation: Y = 100/(1 + 10^(X–LogEC50)).
# CDK1/Cyclin E1 = biological target: T2, CDK1/Cyclin E1 (Homo sapiens, UniProt P06493); settings: read-out: NanoBRET EC50 ± SEM CDK1/Cyclin E1
# T2 construct: Full-length kinases were obtained as plasmids cloned in frame with a terminal NanoLuc-fusion; CS1810C171 (CCNE1); host or cells: HEK293T
# Procedure: as §1
# CDK2/Cyclin A1 = biological target: T3, CDK2/Cyclin A1 (Homo sapiens, UniProt P24941); settings: read-out: NanoBRET EC50 ± SEM CDK2/Cyclin A1
# T3 construct: Full-length kinases were obtained as plasmids cloned in frame with a terminal NanoLuc-fusion; CS1810C172 (CCNA1); host or cells: HEK293T
# Procedure: as §1
# CDK18/Cyclin Y = CDK18/Cyclin Y (Homo sapiens, UniProt Q07002); settings: read-out: NanoBRET EC50 ± SEM CDK18/Cyclin Y
# Procedure: as §1
# CDK20/Cyclin H = CDK20/Cyclin H (Homo sapiens, UniProt Q8IZL9); settings: read-out: NanoBRET EC50 ± SEM CDK20/Cyclin H
# Procedure: as §1
# CDK9/Cyclin K = biological target: T4, CDK9/Cyclin K (Homo sapiens, UniProt P50750); settings: read-out: NanoBRET EC50 ± SEM CDK9/Cyclin K
# T4 construct: Full-length kinases were obtained as plasmids cloned in frame with a terminal NanoLuc-fusion; CS1810C93 (CCNK); host or cells: HEK293T
# Procedure: as §1
# CDK6/Cyclin D3 = biological target: T5, CDK6/Cyclin D3 (Homo sapiens, UniProt Q00534); settings: read-out: NanoBRET EC50 ± SEM CDK6/Cyclin D3
# T5 construct: Full-length kinases were obtained as plasmids cloned in frame with a terminal NanoLuc-fusion; CS1810C87 (CCND3); host or cells: HEK293T
# Procedure: as §1
# CDK11A/Cyclin L2 = biological target: T6, CDK11A/Cyclin L2 (Homo sapiens, UniProt Q9UQ88); settings: read-out: NanoBRET EC50 ± SEM CDK11A/Cyclin L2
# T6 sequence (Q9UQ88 1-783): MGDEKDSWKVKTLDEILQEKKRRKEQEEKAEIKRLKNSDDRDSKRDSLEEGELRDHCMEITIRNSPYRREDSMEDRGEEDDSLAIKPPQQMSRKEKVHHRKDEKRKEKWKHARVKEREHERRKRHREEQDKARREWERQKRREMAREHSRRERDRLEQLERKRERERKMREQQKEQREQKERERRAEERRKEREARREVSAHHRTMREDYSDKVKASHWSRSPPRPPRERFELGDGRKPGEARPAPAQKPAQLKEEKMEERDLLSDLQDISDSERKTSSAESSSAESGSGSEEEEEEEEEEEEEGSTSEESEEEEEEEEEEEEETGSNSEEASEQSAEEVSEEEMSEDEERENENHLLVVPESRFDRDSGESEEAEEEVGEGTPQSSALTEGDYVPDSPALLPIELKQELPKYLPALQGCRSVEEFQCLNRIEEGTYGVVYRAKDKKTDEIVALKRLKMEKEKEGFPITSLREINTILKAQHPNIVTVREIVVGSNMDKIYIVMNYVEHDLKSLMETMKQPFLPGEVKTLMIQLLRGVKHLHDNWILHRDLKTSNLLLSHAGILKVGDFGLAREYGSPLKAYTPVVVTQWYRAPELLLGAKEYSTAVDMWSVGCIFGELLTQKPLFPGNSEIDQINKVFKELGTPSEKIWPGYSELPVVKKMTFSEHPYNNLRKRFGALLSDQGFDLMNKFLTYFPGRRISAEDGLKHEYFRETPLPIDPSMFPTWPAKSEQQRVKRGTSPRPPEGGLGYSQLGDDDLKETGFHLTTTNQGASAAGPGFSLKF
# T6 sequence (Q96S94 1-520 partner): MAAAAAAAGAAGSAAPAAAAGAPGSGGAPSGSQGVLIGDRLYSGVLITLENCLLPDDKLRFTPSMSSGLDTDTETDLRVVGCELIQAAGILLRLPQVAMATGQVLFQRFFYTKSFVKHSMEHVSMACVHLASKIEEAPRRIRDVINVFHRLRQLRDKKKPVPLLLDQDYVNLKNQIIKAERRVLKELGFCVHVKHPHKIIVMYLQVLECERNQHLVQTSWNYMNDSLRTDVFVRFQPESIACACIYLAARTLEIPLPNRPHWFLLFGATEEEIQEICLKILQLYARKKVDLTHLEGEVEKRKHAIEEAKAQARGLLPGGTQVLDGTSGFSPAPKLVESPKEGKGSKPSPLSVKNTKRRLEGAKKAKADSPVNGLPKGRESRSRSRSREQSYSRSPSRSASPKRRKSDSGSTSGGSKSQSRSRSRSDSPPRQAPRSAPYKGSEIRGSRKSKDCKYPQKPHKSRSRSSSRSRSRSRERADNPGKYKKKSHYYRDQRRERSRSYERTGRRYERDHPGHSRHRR
# Procedure: as §1
# CDK10/Cyclin L2 = CDK10/Cyclin L2 (Homo sapiens, UniProt Q15131); settings: read-out: NanoBRET EC50 ± SEM CDK10/Cyclin L2
# Procedure: as §1
# CDK3/Cyclin E1 = biological target: T7, CDK3/Cyclin E1 (Homo sapiens, UniProt Q00526); settings: read-out: NanoBRET EC50 ± SEM CDK3/Cyclin E1
# T7 construct: Full-length kinases were obtained as plasmids cloned in frame with a terminal NanoLuc-fusion; CS1810C171 (CCNE1); host or cells: HEK293T
# Procedure: as §1
# CDK10/Cyclin L2, sequence (Q15131 whole entry): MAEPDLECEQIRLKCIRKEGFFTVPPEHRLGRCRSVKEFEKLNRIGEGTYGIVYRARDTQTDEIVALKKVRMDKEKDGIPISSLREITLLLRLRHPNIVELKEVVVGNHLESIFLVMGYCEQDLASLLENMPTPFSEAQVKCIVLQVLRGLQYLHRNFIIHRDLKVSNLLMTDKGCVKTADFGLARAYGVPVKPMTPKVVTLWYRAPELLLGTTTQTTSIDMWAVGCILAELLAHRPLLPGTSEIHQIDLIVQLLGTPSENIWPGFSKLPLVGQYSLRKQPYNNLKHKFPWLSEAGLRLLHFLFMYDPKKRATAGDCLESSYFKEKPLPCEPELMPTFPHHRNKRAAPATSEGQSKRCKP
# T4 sequence (P50750 whole entry, the tested form may be a part): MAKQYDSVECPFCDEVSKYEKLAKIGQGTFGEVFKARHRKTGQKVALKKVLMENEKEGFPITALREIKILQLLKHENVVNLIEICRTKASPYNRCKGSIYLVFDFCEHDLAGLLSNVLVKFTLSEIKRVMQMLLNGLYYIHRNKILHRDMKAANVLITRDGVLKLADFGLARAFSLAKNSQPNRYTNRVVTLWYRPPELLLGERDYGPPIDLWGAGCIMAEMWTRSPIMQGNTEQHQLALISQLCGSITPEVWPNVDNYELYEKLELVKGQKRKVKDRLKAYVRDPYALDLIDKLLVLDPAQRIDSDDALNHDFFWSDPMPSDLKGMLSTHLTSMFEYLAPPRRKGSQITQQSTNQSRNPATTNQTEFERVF
# T1 sequence (Q14004 whole entry, the tested form may be a part): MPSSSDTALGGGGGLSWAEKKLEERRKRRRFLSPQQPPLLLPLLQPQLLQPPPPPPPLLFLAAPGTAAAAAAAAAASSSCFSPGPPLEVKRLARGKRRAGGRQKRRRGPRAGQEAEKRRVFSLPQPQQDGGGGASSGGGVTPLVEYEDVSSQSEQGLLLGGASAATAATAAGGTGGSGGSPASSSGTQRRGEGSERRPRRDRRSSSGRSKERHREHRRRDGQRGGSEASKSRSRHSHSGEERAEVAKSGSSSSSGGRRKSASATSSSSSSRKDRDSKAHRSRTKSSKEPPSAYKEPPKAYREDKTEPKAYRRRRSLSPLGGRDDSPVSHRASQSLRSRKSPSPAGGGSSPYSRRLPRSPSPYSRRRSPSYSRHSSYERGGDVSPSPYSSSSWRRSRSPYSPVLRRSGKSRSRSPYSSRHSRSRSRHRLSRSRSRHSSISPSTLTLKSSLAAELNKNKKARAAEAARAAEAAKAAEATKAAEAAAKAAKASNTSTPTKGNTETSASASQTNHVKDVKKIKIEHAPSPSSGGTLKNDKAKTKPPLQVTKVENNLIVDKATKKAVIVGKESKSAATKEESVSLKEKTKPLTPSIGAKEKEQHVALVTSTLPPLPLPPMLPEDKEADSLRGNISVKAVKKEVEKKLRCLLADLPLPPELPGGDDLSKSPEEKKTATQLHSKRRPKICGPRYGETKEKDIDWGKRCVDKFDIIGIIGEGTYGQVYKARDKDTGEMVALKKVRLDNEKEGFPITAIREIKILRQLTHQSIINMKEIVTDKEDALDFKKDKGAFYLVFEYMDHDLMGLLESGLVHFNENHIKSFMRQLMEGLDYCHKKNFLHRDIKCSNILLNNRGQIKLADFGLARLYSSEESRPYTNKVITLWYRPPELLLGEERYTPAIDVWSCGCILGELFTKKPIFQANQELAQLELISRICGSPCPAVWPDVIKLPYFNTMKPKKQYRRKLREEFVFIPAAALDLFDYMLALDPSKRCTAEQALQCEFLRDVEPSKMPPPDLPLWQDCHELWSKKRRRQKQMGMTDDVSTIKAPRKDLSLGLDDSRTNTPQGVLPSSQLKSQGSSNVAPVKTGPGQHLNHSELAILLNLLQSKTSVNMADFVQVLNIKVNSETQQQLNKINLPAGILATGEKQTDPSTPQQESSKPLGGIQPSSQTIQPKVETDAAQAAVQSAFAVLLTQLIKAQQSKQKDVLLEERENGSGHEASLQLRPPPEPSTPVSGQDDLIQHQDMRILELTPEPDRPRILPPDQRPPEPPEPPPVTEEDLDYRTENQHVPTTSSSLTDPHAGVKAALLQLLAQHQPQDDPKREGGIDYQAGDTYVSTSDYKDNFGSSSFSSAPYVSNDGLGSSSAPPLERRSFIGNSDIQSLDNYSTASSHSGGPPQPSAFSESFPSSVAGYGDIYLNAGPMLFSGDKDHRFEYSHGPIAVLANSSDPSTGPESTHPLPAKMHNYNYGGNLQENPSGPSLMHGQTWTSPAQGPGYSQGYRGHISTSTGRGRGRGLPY
# T1 sequence (O75909 whole entry partner, the tested form may be a part): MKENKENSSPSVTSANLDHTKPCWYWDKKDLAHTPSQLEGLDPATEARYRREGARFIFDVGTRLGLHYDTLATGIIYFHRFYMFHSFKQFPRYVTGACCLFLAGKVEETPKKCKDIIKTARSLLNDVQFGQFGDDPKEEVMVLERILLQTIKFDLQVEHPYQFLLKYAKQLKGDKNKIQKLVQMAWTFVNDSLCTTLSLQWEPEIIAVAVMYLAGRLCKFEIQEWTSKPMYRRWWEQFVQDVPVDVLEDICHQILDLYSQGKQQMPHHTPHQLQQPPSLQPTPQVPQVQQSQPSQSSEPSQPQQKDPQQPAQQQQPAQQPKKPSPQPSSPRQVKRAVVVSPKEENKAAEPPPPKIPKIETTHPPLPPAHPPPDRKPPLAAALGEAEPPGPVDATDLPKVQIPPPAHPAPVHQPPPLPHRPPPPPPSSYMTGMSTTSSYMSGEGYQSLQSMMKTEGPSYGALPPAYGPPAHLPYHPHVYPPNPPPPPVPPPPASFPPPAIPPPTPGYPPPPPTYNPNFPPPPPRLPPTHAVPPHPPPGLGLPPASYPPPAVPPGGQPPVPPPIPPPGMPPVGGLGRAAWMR
# T5 sequence (Q00534 whole entry, the tested form may be a part): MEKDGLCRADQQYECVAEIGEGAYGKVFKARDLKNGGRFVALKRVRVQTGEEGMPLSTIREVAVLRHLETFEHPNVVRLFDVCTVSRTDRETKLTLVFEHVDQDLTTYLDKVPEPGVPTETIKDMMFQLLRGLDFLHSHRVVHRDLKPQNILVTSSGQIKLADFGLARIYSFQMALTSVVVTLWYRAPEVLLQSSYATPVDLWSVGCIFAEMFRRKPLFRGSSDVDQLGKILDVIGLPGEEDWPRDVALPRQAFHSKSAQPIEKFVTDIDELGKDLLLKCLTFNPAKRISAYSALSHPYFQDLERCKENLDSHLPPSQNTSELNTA
# T5 sequence (P30281 whole entry partner, the tested form may be a part): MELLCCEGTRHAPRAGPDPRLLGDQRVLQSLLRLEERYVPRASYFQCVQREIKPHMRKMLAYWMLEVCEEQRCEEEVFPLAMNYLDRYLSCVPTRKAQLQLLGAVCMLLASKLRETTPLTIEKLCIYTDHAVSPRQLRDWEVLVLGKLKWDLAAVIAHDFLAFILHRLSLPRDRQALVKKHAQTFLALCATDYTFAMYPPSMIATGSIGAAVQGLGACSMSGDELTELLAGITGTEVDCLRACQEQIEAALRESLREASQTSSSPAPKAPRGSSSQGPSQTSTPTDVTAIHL
# T2 sequence (P06493 whole entry, the tested form may be a part): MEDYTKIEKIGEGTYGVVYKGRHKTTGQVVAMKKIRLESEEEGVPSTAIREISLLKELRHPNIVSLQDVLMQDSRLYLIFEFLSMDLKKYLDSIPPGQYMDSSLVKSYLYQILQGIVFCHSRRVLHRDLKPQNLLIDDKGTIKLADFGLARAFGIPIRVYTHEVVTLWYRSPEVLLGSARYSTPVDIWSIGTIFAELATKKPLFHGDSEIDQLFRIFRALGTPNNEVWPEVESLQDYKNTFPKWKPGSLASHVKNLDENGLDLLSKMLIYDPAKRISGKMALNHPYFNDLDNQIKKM
# CDK18/Cyclin Y, sequence (Q07002 whole entry): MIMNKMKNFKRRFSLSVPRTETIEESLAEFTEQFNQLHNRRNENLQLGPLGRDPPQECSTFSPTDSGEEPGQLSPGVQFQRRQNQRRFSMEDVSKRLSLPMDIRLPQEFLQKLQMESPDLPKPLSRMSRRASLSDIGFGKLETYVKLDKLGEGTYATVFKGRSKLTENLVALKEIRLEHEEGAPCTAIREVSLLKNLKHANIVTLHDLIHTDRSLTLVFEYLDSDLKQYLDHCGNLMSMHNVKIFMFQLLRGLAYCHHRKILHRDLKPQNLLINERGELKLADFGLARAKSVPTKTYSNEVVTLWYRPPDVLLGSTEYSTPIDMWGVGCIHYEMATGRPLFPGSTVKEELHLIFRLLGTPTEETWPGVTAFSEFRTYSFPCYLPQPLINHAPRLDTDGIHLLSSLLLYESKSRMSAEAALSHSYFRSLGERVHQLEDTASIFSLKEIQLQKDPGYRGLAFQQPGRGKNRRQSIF
# CDK18/Cyclin Y, sequence (Q8ND76 2-341 partner limits assumed): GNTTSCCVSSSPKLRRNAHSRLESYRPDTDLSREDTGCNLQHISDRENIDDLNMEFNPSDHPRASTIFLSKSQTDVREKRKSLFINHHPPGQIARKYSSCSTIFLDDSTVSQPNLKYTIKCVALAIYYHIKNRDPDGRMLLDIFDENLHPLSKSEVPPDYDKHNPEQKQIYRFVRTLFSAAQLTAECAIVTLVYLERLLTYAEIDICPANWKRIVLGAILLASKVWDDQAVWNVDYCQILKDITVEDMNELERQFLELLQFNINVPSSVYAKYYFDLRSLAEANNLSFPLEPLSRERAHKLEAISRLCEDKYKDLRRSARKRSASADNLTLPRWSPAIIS
SMILES,EC50 (CDK13/Cyclin K) [nM],EC50 (CDK1/Cyclin E1) [nM],EC50 (CDK2/Cyclin A1) [nM],EC50 (CDK18/Cyclin Y) [nM],EC50 (CDK20/Cyclin H) [nM],EC50 (CDK9/Cyclin K) [nM],EC50 (CDK6/Cyclin D3) [nM],EC50 (CDK11A/Cyclin L2) [nM],EC50 (CDK10/Cyclin L2) [nM],EC50 (CDK3/Cyclin E1) [nM]
"CC(C)OC(=O)c1cc(Nc2ccnc(NCc3ccc(NC(=O)OC(C)(C)C)cc3)n2)n[nH]1 [42d, isopropyl 3-((2-((4-((tert-butoxycarbonyl)amino)benzyl)amino)pyrimidin-4-yl)amino)-1H-pyrazole-5-carboxylate]",3830 ± 2280,200 ± 42.8,32500 ± 13900,128 ± 10.4,745 ± 350,575 ± 157,2080 ± 935,2090 ± 599,333.6 ± 0.2,1270 ± 522
"CC(C)(C)OC(=O)Nc1ccc(CNc2nccc(Nc3cc(C(=O)OC(C)(C)C)[nH]n3)n2)cc1 [43d, tert-butyl 3-((2-((4-((tert-butoxycarbonyl)amino)benzyl)amino)pyrimidin-4-yl)amino)-1H-pyrazole-5-carboxylate]",–,582,1670 ± 420,121,1710 ± 222,993,2910 ± 1570,3460 ± 1840,651,2750 ± 959
"N#CCc1ccc(Nc2nccc(Nc3cc(C4CC4)[nH]n3)n2)cc1 [compound 1, reference compound]",66.1 ± 19.9,5.2 ± 2.5,60 ± 41.1,25 ± 8.9,2660 ± 568,17.4 ± 5.4,45.3 ± 35.6,760 ± 460,325 ± 36.4,11.8 ± 4.5
"COC(=O)c1cc(Nc2ccnc(NCc3ccc(NC(=O)OC(C)(C)C)cc3)n2)[nH]n1 [21i, methyl 5-((2-((4-((tert-butoxycarbonyl)amino)benzyl)amino)pyrimidin-4-yl)amino)-1H-pyrazole-3-carboxylate]",24200 ± 5880,6420 ± 3460,36700 ± 3320,1620 ± 287,8420 ± 629,7000 ± 2120,6550 ± 3480,20500 ± 11800,7930 ± 2930,12400 ± 4610

# From publication PMC9736855, “Discovery of 3-Amino-1H-pyrazole-Based Kinase Inhibitors to Illuminate the Understudied PCTAIRE Family” (International Journal of Molecular Sciences, 2022)
